Test results reported in patent US20240307375A1, “PHARMACEUTICAL COMPOSITION FOR PREVENTING AND/OR TREATING KIDNEY INJURY, AND AUTOPHAGY ACTIVATOR” (OSAKA UNIVERSITY, priority 2021, published 2024).

Key:
[1] = test system: Kidney Injury Induced by Cisplatin Administration; test: Cisplatin-induced kidney injury in mice, PAS histology of renal cortex; assay type: in vivo
Description: Wild-type male mice were used as test animals. The mice had free access to water and standard mouse chow. […] The same amount of physiological saline was intraperitoneally administered to the control group. A sample liquid was prepared by suspending Compound 011 (test compound) in PBS. […] The same amount of PBS was orally administered to the control group. […] Additionally, the mice that were not administered with cisplatin were treated in a similar manner, and the blood and kidneys were collected. The mice were thus divided into four groups. The mice were perfused transcardially with PBS (pH of 7.4). The collected kidneys were sliced, post-fixed in 4% PFA (paraformaldehyde), and embedded in paraffin or frozen in OCT compound to obtain section samples of renal cortex. The section samples of the four groups were stained with PAS (Periodic acid-Schiff) and observed under an optical microscope (400×) (FIG. 1). The renal tubular injury was quantitatively evaluated using PAS-stained section samples. […] The renal tubular injury was defined to be cellular necrosis, tubular dilatation, and cast formation.

[2] = test system: Kidney Injury Induced by Cisplatin Administration; test: Plasma creatinine and urea nitrogen in cisplatin-treated mice; assay type: in vivo
Description: Wild-type male mice were used as test animals. […] The same amount of physiological saline was intraperitoneally administered to the control group. […] The same amount of PBS was orally administered to the control group. […] Plasma was obtained from the blood collected from the mice to measure the creatinine concentration and the urea nitrogen concentration (n=2 to 4 for each group). The creatinine concentration was measured by using a BioAssay Systems' Creatinine Assay Kit (DICT-500), and the urea nitrogen concentration was measured by using a Wako BUN-test. […] Additionally, in FIG. 3, “Cre” represents the creatinine concentration and “BUN” represents the serum urea nitrogen concentration.

[3] = test system: p53-positive cells / p62-positive dots (DNA damage, autophagy substrate); test: p53 and p62 immunostaining of renal cortex after cisplatin administration; assay type: in vivo, mice; conditions: cisplatin 15 mg/kg i.p. plus test compound 10 mg/kg orally
Description: The kidneys of mice were collected as in Test Example 1. The kidneys were subjected to autoclaving at 120° C. for 10 minutes in a […] citrate buffer (pH of 6.0) for […] and to blocking with 1.5% bovine serum albumin in PBS for 60 minutes. Subsequently, paraffin embedding was performed to prepare section samples of renal cortex of the four groups.
The sections were incubated overnight at 4° C. with p53 or p62 primary antibodies.
For each group (n=2 to 4), the number of p53-positive cells or p62-positive dots were counted in fields at a magnification of 200× (p53) or 400× (p62) to calculate the average values.

[4] = test system: autophagy flux (GFP-LC3 dots per proximal tubule); test: Autophagy flux in kidneys of GFP-LC3 transgenic mice after cisplatin, with or without chloroquine; assay type: in vivo
Description: The test animals were 8-week-old male autophagy-monitoring mice (GFP-LC3 transgenic mice). The mice had free access to water and standard mouse chow.
The test compound (compound 011) was suspended in PBS to prepare a sample liquid.
Six hours before anesthetization of the mice, a chloroquine solution was administered intraperitoneally as a lysosomal inhibitor at 50 μg/g body weight. Separately, a group in which the chloroquine solution was not administered was also prepared. The chloroquine solution was prepared by dissolving chloroquine (Sigma-Aldrich) in distilled water at a concentration of 5 mg/mL.
The autophagy flux was evaluated by quantifying GFP-LC3 dots (GFP-positive dots).
The kidney sections were immunostained with LRP2/Megalin (red), which is a marker for proximal tubular cells, and contrast-stained with DAPI (blue).
The number of GFP-LC3 dots (green) per proximal tubule in each group (n=5) was quantified in 10 high-magnification fields (600×), and the average values were used for evaluation.

[5] = test system: A549 cells; test: LC3-II Western blotting in A549 cells with or without Bafilomycin A1; assay type: cell-based, human; conditions: 10 μM test compound, 6 hours, Bafilomycin A1 250 nM
Description: A549 cells (1.0×10^5 cells/well), i.e., human lung tumor cells, were seeded in a 6-well plate containing DMEM medium and cultured for 1 day, and the cells were washed with PBS.
A DMEM medium containing Bafilomycin Al (final concentration: 250 nM; also referred to as “Baf”) (Baf(+)) and a DMEM medium not containing Baf (Baf(−)) were prepared. Additionally, a Baf-containing DMEM medium with DMSO or Compound 011 (the test compound) and a Baf-free DMEM medium with DMSO or Compound 011 (the test compound) were also prepared, thus preparing a total of six different media. The final concentration of DMSO was 0.1% and the final concentration of the test compound was 10 μM. Separately, an Earle's balanced salt solution (EBSS; starvation) containing Baf and an EBSS not containing Baf were also prepared. 3 mL of one of the six types of media and two types of EBSSs was added to each well containing washed cells, followed by culturing for 6 hours. After washing the cells three times with PBS, RIPA buffer was added at 4° C., and the cells were allowed to stand on ice for 30 minute. The cells were then quickly and carefully collected from the wells. After the cells were collected, centrifugation (15000 rpm, 4° C., 30 min) was performed, and the supernatant was collected to obtain a protein solution. […]

[6] = cisplatin 15 mg/kg i.p. plus test compound 10 mg/kg orally, effect on cisplatin-induced increase
[7] = test compound 10 mg/kg orally, no cisplatin

Compound | renal tubular injury (PAS-stained renal cortex sections) ([1]; cisplatin 15 mg/kg i.p. plus test compound 10 mg/kg orally for 3 consecutive days, 3 days after cisplatin) | score of renal tubular injury (PAS injury score) ([1]; cisplatin 15 mg/kg i.p. plus test compound 10 mg/kg orally, 10-scale grade) | change in PAS-stained renal cortex versus vehicle administration group ([1]; test compound 10 mg/kg orally for 3 days, no cisplatin) | plasma creatinine concentration [2, 6] | serum urea nitrogen (BUN) concentration [2, 6] | plasma creatinine concentration [2, 7] | serum urea nitrogen (BUN) concentration [2, 7] | number of p53-positive cells [3] | number of p62-positive dots [3] | number of GFP-LC3 dots per proximal tubule ([4]; cisplatin 15 mg/kg i.p. plus test compound 10 mg/kg orally, 2 days after cisplatin, without chloroquine) | number of GFP-LC3 dots per proximal tubule ([4]; cisplatin plus test compound 10 mg/kg orally plus chloroquine 50 μg/g i.p. 6 hours before anesthetization) | LC3-II protein level with Baf treatment relative to without Baf treatment [5] | degree of the LC3-II increase with Baf treatment compared with starvation (EBSS) [5] | number of GFP-LC3 dots per proximal tubule ([4]; cisplatin 15 mg/kg i.p. alone, without chloroquine) | number of GFP-LC3 dots per proximal tubule ([4]; cisplatin 15 mg/kg i.p. plus chloroquine on the second day, no test compound)
O=C(O)c1cnc(N2CCN(c3noc4cccc(C(F)(F)F)c34)CC2)c(Cl)c1 [Compound 011, 5-Chloro-6-(4-(4-(trifluoromethyl)benzo[d]isoxazol-3-yl)piperazin-1-yl)nicotinic acid] | clearly attenuated renal tubular injury caused by cisplatin | clearly attenuated | no apparent change | clearly suppressed | clearly suppressed | little or no change | little or no change | clearly reduced | clearly reduced | a decrease in GFP-LC3 dots | significantly increased | significant increase in LC3-II with the Baf treatment | comparable to that of starvation | – | –
N.N.[Cl][Pt][Cl] [cisplatin, reference compound] | – | – | – | – | – | – | – | – | – | – | – | – | – | increased GFP-LC3 dots | no increase in GFP-LC3 dots
